Measured values as given in US7183278B1 (priority 1998, dated 2007).

test system: rice blast fungi (Pyricularia oryze); assay: whole plant or invertebrate; format: in vivo; conditions: 144 h, read-out: protective value

| SMILES | pest or weed control at 100 ppm [%] |
| --- | --- |
| COc1ccnc(C(=O)Nc2ccc(F)cc2)c1O [Example 120, 3-Hydroxy-4-methoxy-4′-fluoropicolinanilide] | 80 to 100 |
| CCCCCCNC(=O)c1nccc(OC)c1O [Example 83, 3-Hydroxy-4-methoxy-N-(n-hexyl)picolinamide] | 80 to 100 |
| COc1ccnc(C(=O)Nc2cc(C(C)(C)C)cc(C(C)(C)C)c2)c1O [Example 38, 3-Hydroxy-4-methoxy-3′,5′-di-t-butylpicolinanilide] | 80 to 100 |
| COc1ccnc(C(=O)Nc2ccc(C3CCCCC3)cc2)c1O [Example 49, 3-Hydroxy-4-methoxy-4′-cyclohexylpicolinanilide] | 80 to 100 |
| COc1ccnc(C(=O)Nc2ccc(OCc3ccccc3)cc2)c1O [Example 39, 3-Hydroxy-4-methoxy-4′-benzyloxypicolinanilide] | 80 to 100 |
| COc1ccnc(C(=O)Nc2cccc(Oc3ccccc3)c2)c1O [Example 11, 3-Hydroxy-4-methoxy-3′-phenoxypicolinanilide] | 80 to 100 |
| COc1ccnc(C(=O)NC2CCCC2)c1O [Example 79, 3-Hydroxy-4-methoxy-N-cyclopentylpicolinamide] | 80 to 100 |
| COc1ccnc(C(=O)NCCC2=CCCCC2)c1O [Example 53, 3-Hydroxy-4-methoxy-N-(2′-(1-cyclohexenyl)ethyl)picolinamide] | 80 to 100 |
| COc1ccnc(C(=O)Nc2c(C)cc(Oc3ccccc3)cc2C)c1O [Example 55, 3-Hydroxy-4-methoxy-2′,6′-dimethyl-4′-phenoxypicolinanilide] | 80 to 100 |
| COc1ccnc(C(=O)Nc2ccc(Cc3ccccc3)cc2)c1O [Example 13, 3-Hydroxy-4-methoxy-4′-benzylpicolinanilide] | 80 to 100 |
| O=C(Nc1ccc(Oc2ccccc2)cc1)c1ncccc1O [Example 1, 3-Hydroxy-4′-phenoxypicolinanilide] | 80 to 100 |
| COc1ccnc(C(=O)NC23CC4CC(CC(C4)C2)C3)c1O [Example 45, 3-Hydroxy-4-methoxy-N-(1-adamantyl)picolinamide] | 80 to 100 |
| COc1ccnc(C(=O)NCCC2CCCCC2)c1O [Example 63, 3-Hydroxy-4-methoxy-N-(2′-cyclohexylethyl)picolinamide] | 80 to 100 |
| COc1ccnc(C(=O)NC2CCCCCCC2)c1O [Example 43, 3-Hydroxy-4-methoxy-N-cyclooctylpicolinamide] | 80 to 100 |
| COc1ccnc(C(=O)Nc2ccc(Oc3ccccc3)c(Cl)c2)c1O [Example 21, 3-Hydroxy-4-methoxy-3′-chloro-4′-phenoxypicolinanilide] | 80 to 100 |
| COc1ccnc(C(=O)Nc2ccc(C(F)(F)F)cc2)c1O [Example 115, 3-Hydroxy-4-methoxy-4′-trifluoromethylpicolinanilide] | 80 to 100 |
| COc1ccnc(C(=O)Nc2ccc(C(C)(C)C)cc2)c1O [Example 114, 3-Hydroxy-4-methoxy-4′-t-butylpicolinanilide] | 80 to 100 |
| COc1ccnc(C(=O)Nc2ccc3c(c2)OCCO3)c1O [Example 51, 3-Hydroxy-4-methoxy-(3′,4′-ethylenedioxy)picolinanilide] | 80 to 100 |
| CCC(C)NC(=O)c1nccc(OC)c1O (stereo not shown) [Example 82, 3-Hydroxy-4-methoxy-N-(sec-butyl)picolinamide] | 80 to 100 |
| COc1ccnc(C(=O)Nc2ccc(OC(F)(F)F)cc2)c1O [Example 116, 3-Hydroxy-4-methoxy-4′-trifluoromethoxypicolinanilide] | 80 to 100 |
| COc1ccnc(C(=O)NC2CCCCCC2)c1O [Example 57, 3-Hydroxy-4-methoxy-N-cycloheptylpicolinamide] | 80 to 100 |
| COc1ccnc(C(=O)Nc2ccc(Oc3ccccc3)c(C)c2)c1O [Example 23, 3-Hydroxy-4-methoxy-3′-methyl-4′-phenoxypicolinanilide] | 80 to 100 |

| SMILES | pest or weed control at 100 ppm [%] |
| --- | --- |
| COc1ccnc(C(=O)Nc2ccc(C)cc2F)c1O [Example 121, 3-Hydroxy-4-methoxy-2′-fluoro-4′-methylpicolin-anilide] | 80 to 100 |
| COc1ccnc(C(=O)Nc2ccc(C)cc2)c1O [Example 123, 3-Hydroxy-4-methoxy-4′-methylpicolinanilide] | 80 to 100 |
| COc1ccnc(C(=O)NC2CCC2)c1O [Example 81, 3-Hydroxy-4-methoxy-N-cyclobutylpicolinamide] | 80 to 100 |
| COc1ccnc(C(=O)NC(C)c2ccccc2)c1O (stereo not shown) [Example 69, 3-Hydroxy-4-methoxy-N-(1′-phenylethyl)picolinamide] | 80 to 100 |
| COc1ccnc(C(=O)Nc2ccccc2)c1O [Example 60, 3-Hydroxy-4-methoxypicolinanilide] | 80 to 100 |
| COc1ccnc(C(=O)Nc2cc(F)cc(F)c2)c1O [Example 122, 3-Hydroxy-4-methoxy-3′,5′-difluoropicolinanilide] | 80 to 100 |
| COc1ccnc(C(=O)NC2CCC(C)CC2)c1O (stereo not shown) [Example 78, 3-Hydroxy-4-methoxy-N-(4′-methylcyclohexyl)picolinamide] | 80 to 100 |
| COc1ccnc(C(=O)Nc2ccccc2Oc2ccccc2)c1O [Example 12, 3-Hydroxy-4-methoxy-2′-phenoxypicolinanilide] | 80 to 100 |
| COc1ccnc(C(=O)Nc2ccc(Cl)cc2)c1O [Example 61, 3-Hydroxy-4-methoxy-4′-chloropicolinanilide] | 80 to 100 |
| COc1ccnc(C(=O)NC(C)(C)c2ccccc2)c1O [Example 70, 3-Hydroxy-4-methoxy-N-(1′-methyl-1′-phenylethyl)picolinamide] | 80 to 100 |
| COc1ccnc(C(=O)NC2CCCCCCCCCCC2)c1O [Example 42, 3-Hydroxy-4-methoxy-N-cyclododecylpicolinamide] | 80 to 100 |
| COc1ccnc(C(=O)Nc2ccc(CC(C)(C)C)cc2)c1O [Example 125, 3-Hydroxy-4-methoxy-4′-neopentylpicolinanilide] | 80 to 100 |
| COc1ccnc(C(=O)NC2CCCCC2)c1O [Example 59, 3-Hydroxy-4-methoxy-N-cyclohexylpicolinamide] | 80 to 100 |
| COc1ccnc(C(=O)Nc2ccc(Oc3ccccc3)c(C(F)(F)F)c2)c1O [Example 22, 3-Hydroxy-4-methoxy-4′-phenoxy-3′-trifluoromethylpicolinanilide] | 80 to 100 |
| COc1ccnc(C(=O)Nc2ccc(Oc3ccccc3)cc2)c1O [Example 9, 3-Hydroxy-4-methoxy-4′-phenoxypicolinanilide] | 80 to 100 |
| COc1ccnc(C(=O)NCc2ccc(Oc3ccccc3)cc2)c1O [Example 71, 3-Hydroxy-4-methoxy-N-(4′-phenoxybenzyl)picolinamide] | 80 to 100 |
| COc1ccnc(C(=O)NC(C)c2cccc3ccccc23)c1O (stereo not shown) [Example 30, 3-Hydroxy-4-methoxy-N-(1′-(1-naphthyl)ethyl)picolinamide] | 80 to 100 |
| COc1ccnc(C(=O)NCCC(C)(C)C)c1O [Example 88, 3-Hydroxy-4-methoxy-N-(3′,3′-dimethylbutyl)picolinamide] | 80 to 100 |
| COc1ccnc(C(=O)NCC2CCCCC2)c1O [Example 75, 3-Hydroxy-4-methoxy-N-(cyclohexylmethyl)picolinamide] | 80 to 100 |
| COc1ccnc(C(=O)Nc2ccccn2)c1O [Example 126, 3-Hydroxy-4-methoxy-N-(2-pyridyl)picolinamide] | 80 to 100 |
| CCCCCCCCNC(=O)c1nccc(OC)c1O [Example 86, 3-Hydroxy-4-methoxy-N-(n-octyl)picolinamide] | 80 to 100 |
